One compound from PMC6017976, “Enzyme Kinetics and Molecular Docking Studies on Cytochrome 2B6, 2C19, 2E1, and 3A4 Activities by Sauchinone” (Molecules : A Journal of Synthetic Chemistry and Natural …, 2018) can be followed below.

SMILES strings stand for the structures. “And” between values parts separate entries of the source, which are not always exact repeats. Identical values can stand only once. Like-named read-outs stand apart in the source and are kept apart here. A value given as a limit tells only on which side of the number the result lay.

Holding throughout (type): in vitro ADME
Data set [1] addresses T1, CYP2E1 (Homo sapiens, UniProt P05181).
T1 construct: pooled human liver microsomes from a mixed pool of 50 donors; tissue BD Gentest Co. 452156; host or cells: human liver microsomes, pool of 50 donors
Kind of data set: Time-dependent inhibition (TDI) IC50 shift assay on CYP2E1 in HLMs. Particulars: for IC50: HLMs, 10 min incubation.

A further data set addresses T2, CYP1A2 (Homo sapiens, UniProt P05177).
T2 sequence (P05177 1-516): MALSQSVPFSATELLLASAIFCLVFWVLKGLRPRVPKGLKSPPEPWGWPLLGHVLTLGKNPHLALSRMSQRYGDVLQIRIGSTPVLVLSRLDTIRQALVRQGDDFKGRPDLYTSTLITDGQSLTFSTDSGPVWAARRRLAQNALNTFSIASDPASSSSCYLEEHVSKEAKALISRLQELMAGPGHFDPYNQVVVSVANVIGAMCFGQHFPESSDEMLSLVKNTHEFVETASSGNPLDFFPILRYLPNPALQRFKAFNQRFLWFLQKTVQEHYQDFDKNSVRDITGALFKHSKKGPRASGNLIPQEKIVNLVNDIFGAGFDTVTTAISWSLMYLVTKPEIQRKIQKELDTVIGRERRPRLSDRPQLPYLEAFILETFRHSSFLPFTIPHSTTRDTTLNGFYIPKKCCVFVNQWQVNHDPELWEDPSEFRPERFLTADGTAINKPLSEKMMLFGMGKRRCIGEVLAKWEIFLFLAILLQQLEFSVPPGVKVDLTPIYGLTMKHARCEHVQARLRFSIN
Briefly: Time-dependent inhibition (TDI) IC50 shift assay on CYP1A2 in HLMs. On the set-up: […]; tissue BD Gentest Co. 452156. Particulars: 10 min incubation.

The next data set concerns the target T3, CYP2C9 (Homo sapiens, UniProt P11712).
T3 construct: pooled human liver microsomes from a mixed pool of 50 donors; tissue BD Gentest Co. 452156; host or cells: human liver microsomes, pool of 50 donors
Kind of data set: Reversible inhibition (RI) of CYP2C9 activity in HLMs (cocktail probe assay). The note with it: 100 μM tolbutamide, 30 min incubation.

A further data set concerns the target T4, CYP2C19 (Homo sapiens, UniProt P33261).
T4 construct: pooled human liver microsomes from a mixed pool of 50 donors; tissue BD Gentest Co. 452156; host or cells: human liver microsomes, pool of 50 donors
Kind of data set: Time-dependent inhibition (TDI) IC50 shift assay on CYP2C19 in HLMs. The note with it: for IC50: HLMs, 10 min incubation.

For data set [2], the target named is T5, CYP3A4 (Homo sapiens, UniProt P08684).
T5 construct: pooled human liver microsomes from a mixed pool of 50 donors; tissue BD Gentest Co. 452156; host or cells: human liver microsomes, pool of 50 donors
T5 sequence (P08684 whole entry): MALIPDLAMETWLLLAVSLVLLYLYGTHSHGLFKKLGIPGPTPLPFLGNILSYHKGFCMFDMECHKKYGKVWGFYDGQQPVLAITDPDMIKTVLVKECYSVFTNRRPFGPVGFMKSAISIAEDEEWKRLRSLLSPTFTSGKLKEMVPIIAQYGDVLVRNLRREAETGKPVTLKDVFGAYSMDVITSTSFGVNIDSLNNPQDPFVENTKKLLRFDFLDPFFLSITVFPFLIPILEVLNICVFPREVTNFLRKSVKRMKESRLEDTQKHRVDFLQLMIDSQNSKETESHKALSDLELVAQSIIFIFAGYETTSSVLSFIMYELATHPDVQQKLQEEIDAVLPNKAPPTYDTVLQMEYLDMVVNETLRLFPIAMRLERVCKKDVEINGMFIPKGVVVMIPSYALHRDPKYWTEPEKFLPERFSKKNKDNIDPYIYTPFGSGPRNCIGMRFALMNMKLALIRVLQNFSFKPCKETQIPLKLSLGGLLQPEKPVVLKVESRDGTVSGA
Briefly: Enzyme kinetic assay (Dixon plot, Ki) for CYP3A4 in HLMs. Here is the method: (§1) Based on IC50 values, the Kis of sauchinone for CYP2B6, 2C19, 2E1, and 3A4 were determined. Different concentrations (20, 50, and 200 μM) of sauchinone were used. Other procedures were similar to those mentioned above regarding the reversible inhibitory effects of sauchinone. The inhibitory characteristics of sauchinone were initially estimated by nonlinear least squares regression analysis. Its Ki values were determined by Dixon plots.

Data set [3] has as its target T5, CYP3A4. Briefly: Reversible inhibition (RI) of CYP3A4 activity in HLMs (cocktail probe assay). The note with it: testosterone hydroxylation, 50 μM testosterone, 30 min incubation.
For data set [4], the target named is T6, CYP2B6 (Homo sapiens, UniProt P20813).
T6 construct: pooled human liver microsomes from a mixed pool of 50 donors; tissue BD Gentest Co. 452156; host or cells: human liver microsomes, pool of 50 donors
T6 sequence (P20813 1-491): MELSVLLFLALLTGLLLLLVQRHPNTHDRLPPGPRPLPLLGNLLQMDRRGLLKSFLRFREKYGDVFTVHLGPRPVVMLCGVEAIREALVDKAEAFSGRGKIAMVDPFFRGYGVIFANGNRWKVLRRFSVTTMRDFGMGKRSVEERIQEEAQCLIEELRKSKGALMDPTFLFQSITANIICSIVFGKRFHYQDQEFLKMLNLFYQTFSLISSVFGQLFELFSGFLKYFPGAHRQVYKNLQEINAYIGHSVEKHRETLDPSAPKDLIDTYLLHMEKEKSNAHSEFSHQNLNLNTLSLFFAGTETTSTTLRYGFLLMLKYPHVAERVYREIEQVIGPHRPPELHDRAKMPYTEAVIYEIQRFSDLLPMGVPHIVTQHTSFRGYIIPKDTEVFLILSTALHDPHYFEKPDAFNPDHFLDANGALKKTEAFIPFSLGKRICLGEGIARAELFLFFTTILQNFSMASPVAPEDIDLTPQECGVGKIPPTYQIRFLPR
Briefly: Enzyme kinetic assay (Dixon plot, Ki) for CYP2B6 in HLMs. As for the experimental part: as §1

The target of a further data set is T7, CYP2D6 (Homo sapiens, UniProt P10635).
T7 construct: pooled human liver microsomes from a mixed pool of 50 donors; tissue BD Gentest Co. 452156; host or cells: human liver microsomes, pool of 50 donors
T7 sequence (P10635 whole entry): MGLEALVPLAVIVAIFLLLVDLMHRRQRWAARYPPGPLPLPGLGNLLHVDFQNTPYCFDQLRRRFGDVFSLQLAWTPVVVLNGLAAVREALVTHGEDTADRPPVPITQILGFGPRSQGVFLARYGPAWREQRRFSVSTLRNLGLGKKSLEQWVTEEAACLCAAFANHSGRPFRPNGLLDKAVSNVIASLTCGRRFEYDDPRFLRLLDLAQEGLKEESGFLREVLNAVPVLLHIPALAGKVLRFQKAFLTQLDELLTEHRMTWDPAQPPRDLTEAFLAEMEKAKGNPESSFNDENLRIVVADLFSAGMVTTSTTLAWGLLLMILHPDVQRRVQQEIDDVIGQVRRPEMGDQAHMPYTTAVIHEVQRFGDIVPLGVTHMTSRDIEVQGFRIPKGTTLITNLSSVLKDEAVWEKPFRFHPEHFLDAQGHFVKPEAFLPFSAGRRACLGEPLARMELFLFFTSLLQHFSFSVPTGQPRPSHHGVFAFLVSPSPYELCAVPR
Briefly: Reversible inhibition (RI) of CYP2D6 activity in HLMs (cocktail probe assay). The note with it: 5 μM dextromethorphan, 30 min incubation.

Data set [5] addresses T1, CYP2E1. Kind of data set: Reversible inhibition (RI) of CYP2E1 activity in HLMs (cocktail probe assay). Particulars: chlorzoxazone hydroxylation, 50 μM chlorzoxazone, 30 min incubation.
Data set [6] concerns the target T6, CYP2B6. Briefly: Time-dependent inhibition (TDI) IC50 shift assay on CYP2B6 in HLMs. The note with it: for IC50: HLMs, 10 min incubation.

T1 sequence (P05181 whole entry): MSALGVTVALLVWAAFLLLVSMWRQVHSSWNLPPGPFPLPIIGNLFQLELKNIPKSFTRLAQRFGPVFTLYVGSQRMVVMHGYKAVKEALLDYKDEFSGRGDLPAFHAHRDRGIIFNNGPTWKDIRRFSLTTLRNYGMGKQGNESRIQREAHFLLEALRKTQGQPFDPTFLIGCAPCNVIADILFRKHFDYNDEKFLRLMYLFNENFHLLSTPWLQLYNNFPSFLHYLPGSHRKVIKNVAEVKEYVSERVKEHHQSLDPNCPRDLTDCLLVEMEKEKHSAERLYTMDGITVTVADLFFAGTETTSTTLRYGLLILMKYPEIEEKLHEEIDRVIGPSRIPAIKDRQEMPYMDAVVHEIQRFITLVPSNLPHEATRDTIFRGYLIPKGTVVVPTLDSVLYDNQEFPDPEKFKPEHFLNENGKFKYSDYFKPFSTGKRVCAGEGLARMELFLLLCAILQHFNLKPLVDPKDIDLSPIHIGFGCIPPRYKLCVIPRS
T4 sequence (P33261 whole entry): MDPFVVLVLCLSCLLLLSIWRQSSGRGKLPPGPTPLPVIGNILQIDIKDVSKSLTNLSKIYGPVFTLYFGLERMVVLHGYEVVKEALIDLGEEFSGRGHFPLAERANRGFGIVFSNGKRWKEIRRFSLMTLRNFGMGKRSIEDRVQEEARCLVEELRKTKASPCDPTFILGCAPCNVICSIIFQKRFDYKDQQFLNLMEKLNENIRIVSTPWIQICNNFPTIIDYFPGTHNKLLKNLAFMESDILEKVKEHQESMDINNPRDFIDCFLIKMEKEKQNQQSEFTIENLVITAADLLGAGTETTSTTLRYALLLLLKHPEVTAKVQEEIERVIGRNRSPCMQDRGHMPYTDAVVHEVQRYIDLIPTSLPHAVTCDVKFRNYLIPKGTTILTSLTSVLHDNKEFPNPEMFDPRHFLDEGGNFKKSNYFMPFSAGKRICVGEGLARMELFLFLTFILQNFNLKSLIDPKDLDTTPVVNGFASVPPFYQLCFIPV
T3 sequence (P11712 whole entry): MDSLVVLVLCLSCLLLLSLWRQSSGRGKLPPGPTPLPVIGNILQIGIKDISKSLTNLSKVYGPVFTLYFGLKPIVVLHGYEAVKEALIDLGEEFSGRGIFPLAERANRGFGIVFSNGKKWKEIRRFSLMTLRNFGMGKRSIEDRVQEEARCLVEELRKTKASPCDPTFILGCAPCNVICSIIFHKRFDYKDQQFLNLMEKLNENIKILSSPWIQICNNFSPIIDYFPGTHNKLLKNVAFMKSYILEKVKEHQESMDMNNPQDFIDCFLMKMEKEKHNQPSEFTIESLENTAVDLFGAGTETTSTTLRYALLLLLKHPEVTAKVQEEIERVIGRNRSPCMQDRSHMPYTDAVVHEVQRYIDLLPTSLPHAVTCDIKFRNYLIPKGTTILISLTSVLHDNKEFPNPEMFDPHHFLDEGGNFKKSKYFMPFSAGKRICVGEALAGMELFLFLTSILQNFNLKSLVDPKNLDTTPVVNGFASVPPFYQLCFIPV

Take `C[C@@H]1[C@H]2c3cc4c(cc3O[C@@]35OCOC3=CC(=O)[C@H](C[C@H]1C)[C@@H]25)OCO4` [Sauchinone]: the concentration for half-maximal inhibition (IC50) at CYP2E1 [1] (0 min pre-incubation with NADPH, read-out: IC50 on CYP2E1, 0 min inactivation incubation (TDI)) is 105 ± 57 µM; at CYP2E1 [1] (IC50 on CYP2E1, 30 min inactivation incubation (TDI), 30 min pre-incubation with NADPH), 5.04 ± 1.91 µM; on CYP1A2 (0 min pre-incubation with NADPH, read-out: IC50 on CYP1A2, 0 min inactivation incubation (TDI)) it was above 300 µM; on CYP1A2 (IC50 on CYP1A2, 30 min inactivation incubation (TDI), 30 min pre-incubation with NADPH), above 300 µM; at CYP2C9, above 300 µM; on CYP2C19 (0 min pre-incubation with NADPH, read-out: IC50 on CYP2C19, 0 min inactivation incubation (TDI)), 28.5 ± 0.267 µM. The IC50 on CYP2C19 (IC50 on CYP2C19, 30 min inactivation incubation (TDI), 30 min pre-incubation with NADPH) was 19.4 ± 2.92 µM; on CYP3A4 [3], 0.207 ± 0.193 µM; against CYP2D6, above 300 µM; against CYP2E1 [5], 35.4 µM and 35.8 µM; at CYP2B6 [6] (0 min pre-incubation with NADPH, read-out: IC50 on CYP2B6, 0 min inactivation incubation (TDI)), 36.4 ± 27 µM; at CYP2B6 [6] (IC50 on CYP2B6, 30 min inactivation incubation (TDI), 30 min pre-incubation with NADPH), 3.93 ± 5.72 µM. The IC50 shift at 10 min on CYP2E1 [1] (human, human liver microsomes, pH 7.4, probe chlorzoxazone (substrate cocktail set)) was 20.9; at CYP2B6 [6] (human, human liver microsomes, pH 7.4, probe bupropion (substrate cocktail set)), 9.28. Further, on CYP2C19 (human, human liver microsomes, pH 7.4), the IC50 shift amounted to 1.47. Also, the Ki on CYP3A4 [2] (sauchinone 20, 50, 200 μM, read-out: Apparent inhibition constant (Ki) for CYP3A4) turned out to be 6.84 µM; on CYP2B6 [4] (sauchinone 20, 50, 200 μM, read-out: Apparent inhibition constant (Ki) for CYP2B6), 14.3 µM. The “Type of reversible inhibition of CYP3A4 (Dixon plot model)” value at CYP3A4 [2] (visual inspection) was “noncompetitive”. The “Type of reversible inhibition of CYP2B6 (Dixon plot model)” value on CYP2B6 [4] (visual inspection) is listed as “noncompetitive”.

In general, IC50 refers to the concentration that inhibits the measured activity by half.
